The source of these data is US20260216400A1, “CELL-[…] MOLECULE IMPARTING PROTEIN ADHESION […] CELLS” (THE UNIVERSITY OF OSAKA, priority 2023, published 2026).

Common to all, as to experiment: Binding of FITC-labeled collagen-binding peptides to coated wells (Example 6)
For assay [1], the system named is laminin. The settings on record: 37° C., 3 hours. As to the method: (§1) The selectivity of collagen-binding peptides for components of the extracellular matrix was investigated. […] After washing, the fluorescence intensity was measured using a confocal laser scanning microscope.
The test system of assay [2] is type IV collagen. The conditions noted are these: 37° C., 3 hours. The protocol: as §1
The target of assay [3] is type I collagen (Homo sapiens, UniProt P02452+P08123).
type I collagen, sequence (P08123 80-1119): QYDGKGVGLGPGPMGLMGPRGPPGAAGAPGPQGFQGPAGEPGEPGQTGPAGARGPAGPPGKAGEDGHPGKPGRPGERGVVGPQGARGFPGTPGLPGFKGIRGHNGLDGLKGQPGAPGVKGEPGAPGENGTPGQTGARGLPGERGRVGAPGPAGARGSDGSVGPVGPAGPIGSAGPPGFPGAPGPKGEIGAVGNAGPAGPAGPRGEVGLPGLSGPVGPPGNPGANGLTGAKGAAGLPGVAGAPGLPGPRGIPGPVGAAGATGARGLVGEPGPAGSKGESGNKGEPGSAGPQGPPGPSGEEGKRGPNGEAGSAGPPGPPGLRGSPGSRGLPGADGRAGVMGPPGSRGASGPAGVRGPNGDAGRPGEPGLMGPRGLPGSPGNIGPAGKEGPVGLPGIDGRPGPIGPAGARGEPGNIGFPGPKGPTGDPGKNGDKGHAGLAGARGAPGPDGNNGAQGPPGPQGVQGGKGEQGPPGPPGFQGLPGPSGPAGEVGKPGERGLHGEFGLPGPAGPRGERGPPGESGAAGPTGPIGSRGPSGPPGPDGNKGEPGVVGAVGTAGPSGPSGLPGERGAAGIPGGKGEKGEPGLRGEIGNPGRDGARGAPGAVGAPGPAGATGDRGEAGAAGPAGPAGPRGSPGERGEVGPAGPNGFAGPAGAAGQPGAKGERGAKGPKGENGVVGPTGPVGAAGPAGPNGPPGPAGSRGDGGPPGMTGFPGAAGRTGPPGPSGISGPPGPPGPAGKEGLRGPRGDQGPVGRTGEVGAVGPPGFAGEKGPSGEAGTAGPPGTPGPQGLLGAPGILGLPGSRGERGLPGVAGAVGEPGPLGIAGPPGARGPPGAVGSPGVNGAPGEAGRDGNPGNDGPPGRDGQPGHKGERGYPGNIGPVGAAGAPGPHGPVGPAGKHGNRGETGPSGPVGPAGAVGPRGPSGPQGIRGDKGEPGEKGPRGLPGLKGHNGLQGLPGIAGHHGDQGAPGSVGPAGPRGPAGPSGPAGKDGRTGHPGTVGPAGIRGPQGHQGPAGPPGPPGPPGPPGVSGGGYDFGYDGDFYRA
type I collagen, sequence (P02452 162-1218): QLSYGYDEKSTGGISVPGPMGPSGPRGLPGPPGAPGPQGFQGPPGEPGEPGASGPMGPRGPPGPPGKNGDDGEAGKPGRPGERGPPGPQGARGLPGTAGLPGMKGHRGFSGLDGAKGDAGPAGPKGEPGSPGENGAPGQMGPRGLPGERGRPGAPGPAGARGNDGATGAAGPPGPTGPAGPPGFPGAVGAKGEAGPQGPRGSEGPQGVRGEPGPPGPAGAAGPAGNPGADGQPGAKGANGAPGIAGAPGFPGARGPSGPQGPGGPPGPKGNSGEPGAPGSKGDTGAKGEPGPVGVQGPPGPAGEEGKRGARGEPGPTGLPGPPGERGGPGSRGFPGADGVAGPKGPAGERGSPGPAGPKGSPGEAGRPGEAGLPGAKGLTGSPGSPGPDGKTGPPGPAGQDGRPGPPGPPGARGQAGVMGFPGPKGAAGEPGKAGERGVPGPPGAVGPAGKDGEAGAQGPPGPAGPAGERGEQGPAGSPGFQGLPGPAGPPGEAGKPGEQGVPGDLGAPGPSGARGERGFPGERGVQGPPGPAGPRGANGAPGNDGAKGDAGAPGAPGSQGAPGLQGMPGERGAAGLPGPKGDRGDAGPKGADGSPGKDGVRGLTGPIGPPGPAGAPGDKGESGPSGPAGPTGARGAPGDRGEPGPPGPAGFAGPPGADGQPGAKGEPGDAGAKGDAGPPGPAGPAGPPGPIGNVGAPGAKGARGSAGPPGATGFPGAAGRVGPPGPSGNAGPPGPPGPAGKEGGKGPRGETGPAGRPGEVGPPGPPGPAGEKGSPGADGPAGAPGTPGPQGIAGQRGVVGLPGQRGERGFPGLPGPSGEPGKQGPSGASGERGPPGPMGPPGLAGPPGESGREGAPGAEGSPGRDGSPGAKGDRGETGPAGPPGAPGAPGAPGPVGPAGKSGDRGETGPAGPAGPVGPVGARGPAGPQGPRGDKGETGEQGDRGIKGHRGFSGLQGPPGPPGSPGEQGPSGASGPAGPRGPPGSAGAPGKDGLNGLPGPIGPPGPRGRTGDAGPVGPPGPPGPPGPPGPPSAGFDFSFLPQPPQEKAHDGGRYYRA

In the case of SYIRIADNTNIT, in assay [1], the “binding to laminin (fluorescence intensity)” value is “in a concentration-dependent manner”. In assay [2], the “binding to type IV collagen (fluorescence intensity)” value is “in a concentration-dependent manner”. Also, the “fluorescence intensity compared between peptides” value in assay [3] (100 μM (box in FIG. 6), type I collagen, type IV collagen, laminin wells) was “stronger than that of TKKTLRT”. In addition, in assay [3] (coated wells, 37° C., 3 hours), the “binding to type I collagen (fluorescence intensity)” value was “in a concentration-dependent manner”. The “selectivity for components of the extracellular matrix (order)” value in assay [3] (type I collagen, type IV collagen, laminin) was “type I collagen>type IV collagen>laminin”.
With TKKTLRT, the “binding to laminin (fluorescence intensity)” value in assay [1] is “in a concentration-dependent manner”. In addition, the “binding to type IV collagen (fluorescence intensity)” value in assay [2] was “in a concentration-dependent manner”.
